Measurements as given in patent US20230295157A1, “3-(1H-IMIDAZOL-2-YL)-2,3,8,8A-TETRAHYDROINDOLIZIN-5(1H)-ONE DERIVATIVES USEFUL AS FACTOR XIA INHIBITORS” (JANSSEN PHARMACEUTICA NV, priority 2020, published 2023).
Read-outs that look alike come from different tables or passages of the source.

What was measured:
Factor XIa = Factor XIa (Homo sapiens (Human), UniProt P03951); assay: Factor XIa inhibition assay (FLINT) utilizing a fluorophore-quencher pair peptide substrate; format: biochemical; conditions: 30 min preincubation, kinetic reads over 30 min, read-out: FXIa Kin Inh IC50
Sequence of Factor XIa (P03951 388-625): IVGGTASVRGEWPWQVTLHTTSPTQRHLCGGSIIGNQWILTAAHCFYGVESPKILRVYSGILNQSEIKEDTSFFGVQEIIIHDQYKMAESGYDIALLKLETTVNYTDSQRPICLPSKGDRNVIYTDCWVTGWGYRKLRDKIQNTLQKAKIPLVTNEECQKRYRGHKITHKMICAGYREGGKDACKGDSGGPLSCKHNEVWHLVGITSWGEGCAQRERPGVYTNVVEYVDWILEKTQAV
Sequence of Factor XIa (P03951 19-387 partner): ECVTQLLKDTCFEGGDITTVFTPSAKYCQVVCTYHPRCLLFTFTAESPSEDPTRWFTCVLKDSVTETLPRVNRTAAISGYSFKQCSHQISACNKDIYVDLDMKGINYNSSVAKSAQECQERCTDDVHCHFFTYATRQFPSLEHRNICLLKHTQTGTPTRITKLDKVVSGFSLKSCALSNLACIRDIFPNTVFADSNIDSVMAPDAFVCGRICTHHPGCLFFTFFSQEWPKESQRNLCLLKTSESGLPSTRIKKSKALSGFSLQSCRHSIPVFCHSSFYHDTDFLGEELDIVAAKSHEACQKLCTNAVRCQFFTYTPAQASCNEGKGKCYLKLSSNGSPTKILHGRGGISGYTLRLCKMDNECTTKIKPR
From the text: Biological Example 1: Factor XIa Inhibition Assay Utilizing a Fluorophore-Quencher Pair Peptide Substrate
A fluorescence intensity (FLINT) based assay was used to monitor inhibition of Factor XIa. The peptide substrate, 5Fam-[…]-K5Tamra (purchased from New England Peptide) was chosen based on the FXI sequence. Conversion of zymogen […]. The custom peptide used in this assay was based on the Arg146 cleavage site of FXI. The peptide substrate was designed with a fluorophore-quencher pair, where the fluorescence is quenched until FXIa cleaves the 8-mer peptide after the Arg residue.
The Factor XIa FLINT assay was used with the following 5Fam-[…]-K5Tamra assay buffer: 50 mM Tris, pH 7.5, 100 mM NaCl, 5 mM CaCl2), 0.1 mg/mL BSA, 0.03% CHAPS. Assay buffer was prepared by mixing all ingredients fresh. 5Fam-[…]-K5Tamra peptide substrate was first prepared at 10 mM in 100% DMSO, then diluted to 3 mM in 100% DMSO. Assay buffer was then added directly to the 3 mM stock of substrate to prepare the 30 μM 2× working concentration (15 μM final concentration). The 2×Factor XIa stock solution was prepared by diluting 6.562 μM stock in 1×assay buffer for a 200 μM working stock solution (100 μM final concentration).
Test compound(s) were run in an 11-point, 3-fold serial dilution with a final top compound concentration of 100 nM. Final DMSO in assay was 2%. FXIa was preincubated with compound for 30-minutes and then substrate was added to initiate the reaction. The assay was run with kinetic (KIN) reads at 5 min intervals over 30 minutes. The time course was linear using 100 μM FXIa greater than 30 minutes. More specifically, the assay was run as follows: • 100 nL of 0.01 mM test compound was dispensed into black 384 well non-binding Greiner BioOne 784900 plate for 0.1 μM final concentration; • 5 μL of 1×assay buffer was dispensed to column 24 (low control) and 5 μL 2×Factor XIa solution was dispensed to columns 1-23 (column 23 high control); • the plate was centrifuged with a “cover” plate at 500 rpm for 1 min • the plate was pre-incubated for 30 minutes at room temperature with plate covered; • 5 μL of 2×5Fam-[…]-K5Tamra peptide substrate was dispensed into the entire plate, columns 1-24; • the plate was centrifuged with a “cover” plate at 500 rpm for 1 min; • the plate was read monitoring fluorescence intensity on the BMG PHERAStar at room temperature, using fluorescence module 485 nm/520 nm.
(§1) Percent inhibition (IC50) curves were generated per compound tested, and data was analyzed using a 4-parameter logistic fit using GeneData Screener. The relative fluorescence unit (RFU) values were normalized to percent inhibition using the following equation:
% inhibition=((HC-LC)−(compound−LC)/(HC-LC))*100
where LC—low control=mean signal of no Factor XIa or 100% inhibition of Factor XIa; HC—high control=mean signal of Factor XIa+5Fam-[…]-K5Tamra peptide substrate with DMSO only.
(§2) An 11-point dose response curve for the test compound(s) was generated using GENDATA to determine IC50 value based on the following equation:
Y=Bottom+(Top-Bottom)/(1+10^((logIC50-X)*HillSlope))
where Y is the % inhibition in the presence of X inhibitor concentration, Top=high control=mean signal of Factor XIa+5Fam-[…] K5Tamra peptide substrate with DMSO only; Bottom=low control−mean signal of no Factor XIa or 100% inhibition of Factor XIa; HillSlope—Hill coefficient; and IC50=concentration of compound with 50% inhibition in relation to top/high control.
Representative compounds of the present invention were tested according to the procedure described in Biological Example 1 and Biological Example 2 above, with results as listed in Table 3, below.

human plasma kallikrein = human plasma kallikrein (Homo sapiens (Human), UniProt P03952); assay: Kallikrein inhibition assay (FLINT) utilizing a quenched AMC peptide substrate; format: biochemical; conditions: 30 min preincubation, read-out: Kallikrein Kin Inh IC50
Sequence of human plasma kallikrein (P03952 391-638): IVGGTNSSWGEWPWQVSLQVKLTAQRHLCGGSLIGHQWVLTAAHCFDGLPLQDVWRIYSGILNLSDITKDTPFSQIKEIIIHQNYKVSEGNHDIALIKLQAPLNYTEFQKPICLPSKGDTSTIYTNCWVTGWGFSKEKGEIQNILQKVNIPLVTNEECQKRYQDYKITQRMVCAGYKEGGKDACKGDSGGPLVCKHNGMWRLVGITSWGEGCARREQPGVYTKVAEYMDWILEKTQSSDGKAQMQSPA
Sequence of human plasma kallikrein (P03952 20-390 partner): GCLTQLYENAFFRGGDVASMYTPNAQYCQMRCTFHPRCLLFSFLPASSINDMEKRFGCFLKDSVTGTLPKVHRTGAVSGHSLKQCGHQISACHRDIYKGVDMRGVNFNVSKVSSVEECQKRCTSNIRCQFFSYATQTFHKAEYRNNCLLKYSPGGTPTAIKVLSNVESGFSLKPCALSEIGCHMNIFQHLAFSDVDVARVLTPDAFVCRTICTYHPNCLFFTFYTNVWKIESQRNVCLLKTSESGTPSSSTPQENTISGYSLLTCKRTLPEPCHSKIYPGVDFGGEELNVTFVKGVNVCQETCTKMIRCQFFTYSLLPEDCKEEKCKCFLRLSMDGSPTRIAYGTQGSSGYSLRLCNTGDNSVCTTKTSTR
Experimental: Biological Example 2: Kallikrein Inhibition Assay Utilizing a Quenched AMC Peptide Substrate A fluorescence intensity (FLINT) based assay was used to monitor inhibition of human plasma kallikrein.
The Kallikrein FLINT assay was used with the following Z-Gly-Pro-Arg-AMC assay buffer: 50 mM Tris, pH 7.5, 100 mM NaCl, 5 mM CaCl2), 0.1 mg/mL BSA, 0.03% CHAPS. Assay buffer was prepared by mixing all ingredients fresh. 2×Z-Gly-Pro-Arg-AMC peptide substrate was prepared by diluting 10 mM stock into 1×assay buffer for a 100 μM working concentration (50 μM final concentration). The 2×kallikrein stock solution was prepared by diluting 14.76 μM stock in 1×assay buffer for a 4 nM working stock solution (2 nM final concentration).
Test compound(s) were run in an 11-point, 3-fold serial dilution with a final top compound concentration of 1 μM. Final DMSO in assay was 2%. Plasma kallikrein was pre-incubated for 30-minute with compound and then 50 μM substrate was added to initiate the reaction. The assay was run with kinetic (KIN) reads at 5 min intervals over 30 minutes. […] More specifically, the assay was run as follows: • 100 nL of 0.1 mM test compound was dispensed into black 384-well non-binding Greiner BioOne 784900 plate for 1 μM final concentration; • 5 μL of 1×assay buffer was dispensed to columns 24 (low control) and 5 μL 2×human kallikrein enzyme solution was dispensed to columns 1-23 (column 23 high control); • the plate was centrifuged with a “cover” plate at 500 rpm for 1 min • the plate was pre-incubated for 30 minutes at room temperature with plate covered; • 5 μL of 2×Z-Gly-Pro-Arg-AMC peptide substrate was dispensed into the entire plate, columns 1-24; • the plate was centrifuged with a “cover” plate at 500 rpm for 1 min; • the plate was read monitoring fluorescence intensity on the BMG PHERAStar at room temperature, using fluorescence module 340 nm/440 nm.
as §1
% inhibition=((HC-LC)−(compound-LC)\(HC-LC))*100 where LC—low control=mean signal of human kallikrein enzyme or 100% inhibition of human kallikrein enzyme; HC—high control=mean signal of Factor XIa+Z-Gly-Pro-Arg-AMC peptide substrate with DMSO only.
as §2
Y=Bottom+(Top-Bottom)/(1+10^((logIC50−X)*HillSlope)) where Y is the % inhibition in the presence of X inhibitor concentration, Top=high control=mean signal of human kallikrein enzyme+Z-Gly-Pro-Arg-AMC peptide substrate with DMSO only; Bottom=low control−mean signal of no human kallikrein enzyme or 100% inhibition of human kallikrein enzyme; HillSlope—Hill coefficient; and IC50=concentration of compound with 50% inhibition in relation to top/high control.

[1] = 5Fam-KLTRAETV-K5Tamra substrate 15 μM
[2] = kinetic reads over 30 min, Z-Gly-Pro-Arg-AMC substrate 50 μM
[3] = 5Fam-[…]-K5Tamra substrate 15 μM

| SMILES | IC50 (Factor XIa; [1]) [nM] | IC50 (human plasma kallikrein; [2]) [µM] | IC50 (Factor XIa; [3]) [nM] | IC50 (human plasma kallikrein; μM, kinetic reads) [µM] |
| --- | --- | --- | --- | --- |
| COC(=O)Nc1ccccc1-c1cnc([C@@H]2CC[C@H]3CC(c4c(-n5cnnn5)ccc(Cl)c4F)=CC(=O)N32)[nH]1 (relative stereo) [Example 302, Methyl 2-(24(3S,8aS*)-7-(3-chloro-2-fluoro-6-(1H-tetrazol-1-yl)phenyl)-5-oxo-1,2,3,5,8,8a-hexahydroindolizin-3-yl)-1H-imidazol-4-yl)phenylcarbamate] | – | 0.0291 | 10.4 | – |
| CCOC(=O)Nc1ncccc1-c1c[nH]c([C@@H]2CC[C@H]3CC(c4c(-n5cnnn5)ccc(Cl)c4F)=CC(=O)N32)n1 [Example 262, Ethyl N-[3-[2-[(3S,8aS)-7-[3-chloro-2-fluoro-6-(tetrazol-1-yl)phenyl]-5-oxo-2,3,8,8a-tetrahydro-1H-indolizin-3-yl]-1H-imidazol-4-yl]-2-pyridyl]carbamate] | 45.8 | 0.15 | – | – |
| O=C1C=C(c2c(-n3cnnn3)ccc(Cl)c2F)CC2CC[C@@H](c3ncc(-c4ccc5[nH]c(=O)[nH]c5c4)[nH]3)N12 (stereo partly drawn) [Example 312, 5-(2-((3S)-7-(3-Chloro-2-fluoro-6-(1H-tetrazol-1-yl)phenyl)-5-oxo-1,2,3,5,8,8a-hexahydroindolizin-3-yl)-1H-imidazol-5-yl)-1H-benzo[d]imidazol-2(3H)-one] | 0.3 | 0.0006 | – | – |
| COC(=O)Nc1ccc(-c2cnc([C@@H]3CCC4CC(c5c(-n6cnnn6)ccc(Cl)c5F)=CC(=O)N43)[nH]2)nc1 (stereo partly drawn) [Example 326, Methyl (6-(2-((3S)-7-(3-Chloro-2-fluoro-6-(1H-tetrazol-1-yl)phenyl)-5-oxo-1,2,3,5,8,8a-hexahydroindolizin-3-yl)-1H-imidazol-5-yl)pyridin-3-yl)carbamate] | 1 | 0.0124 | – | – |
| CCC(=O)Nc1ccccc1-c1c[nH]c([C@@H]2CC[C@@H]3CC(c4c(-n5cnnn5)ccc(Cl)c4F)=CC(=O)N32)n1 (single isomer, unassigned) [Example 295, N-(2-(2-((3S,8aR*)-7-(3-Chloro-2-fluoro-6-(1H-tetrazol-1-yl)phenyl)-5-oxo-1,2,3,5,8,8a-hexahydroindolizin-3-yl)-1H-imidazol-4-yl)phenyl)propionamide] | 0.7 | 0.0026 | – | – |

Now from value to molecule:

| IC50 (Factor XIa; [1]) [nM] | IC50 (human plasma kallikrein; [2]) [µM] | IC50 (Factor XIa; [3]) [nM] | IC50 (human plasma kallikrein; μM, kinetic reads) [µM] | SMILES |
| --- | --- | --- | --- | --- |
| 0.7 | 0.0492 | – | – | O=C(O)c1nccc(-c2cnc([C@@H]3CC[C@@H]4CC(c5c(-n6cc(C(F)(F)F)nn6)ccc(Cl)c5F)=CC(=O)N43)[nH]2)c1F [Example 58, 4-(2-((3S,8aR)-7-(3-chloro-2-fluoro-6-(4-(trifluoromethyl)-1H-1,2,3-triazol-1-yl)phenyl)-5-oxo-1,2,3,5,8,8a-hexahydroindolizin-3-yl)-1H-imidazol-5-yl)-3-fluoropicolinic acid] |
| 36.3 | 0.0565 | – | – | O=C1C=C(c2c(-n3cnnn3)ccc(Cl)c2F)C[C@H]2CC[C@@H](c3ncc(-c4cc(F)ncc4Cl)[nH]3)N12 [Example 371, (3S,8aR)-7-(3-chloro-2-fluoro-6-(1H-tetrazol-1-yl)phenyl)-3-(5-(5-chloro-2-fluoropyridin-4-yl)-1H-imidazol-2-yl)-2,3,8,8a-tetrahydroindolizin-5(1H)-one] |
| 134 | – | – | 1.2 | NC(=O)c1ccccc1-c1cnc([C@@H]2CCC3CC(c4c(-n5cnnn5)ccc(Cl)c4F)=CC(=O)N32)[nH]1 (stereo partly drawn) [Example 290, 2-(2-((3S)-7-(3-Chloro-2-fluoro-6-(1H-tetrazol-1-yl)phenyl)-5-oxo-1,2,3,5,8,8a-hexahydroindolizin-3-yl)-1H-imidazol-5-yl)benzamide] |
| 6.3 | 0.0655 | – | – | Cc1c(-c2cnc([C@@H]3CCC4CC(c5c(-n6cnnn6)ccc(Cl)c5F)=CC(=O)N43)[nH]2)ccnc1N (stereo partly drawn) [Example 21, (3S)-3-(5-(2-Amino-3-methylpyridin-4-yl)-1H-imidazol-2-yl)-7-(3-chloro-2-fluoro-6-(1H-tetrazol-1-yl)phenyl)-2,3,8,8a-tetrahydroindolizin-5(1H)-one] |
| 1.4 | 0.019 | – | – | O=C1C=C(c2c(-n3cnnn3)ccc(Cl)c2F)CC2CC[C@@H](c3ncc(-c4cn[nH]c4Cl)[nH]3)N12 (stereo partly drawn) [Example 366, (3S)-3-(5-(5-chloro-1H-pyrazol-4-yl)-1H-imidazol-2-yl)-7-(3-chloro-2-fluoro-6-(1H-tetrazol-1-yl)phenyl)-2,3,8,8a-tetrahydroindolizin-5(1H)-one] |
| – | 0.0278 | 8.4 | – | O=C1C=C(c2c(-n3cnnn3)ccc(Cl)c2F)C[C@H]2CC[C@@H](c3ncc(-c4ccnc(C(F)(F)CO)c4F)[nH]3)N12 (relative stereo) [Example 160, (3*S,8aR)-7-(3-chloro-2-fluoro-6-(1H-tetrazol-1-yl)phenyl)-3-(5-(2-(1,1-difluoro-2-hydroxyethyl)-3-fluoropyridin-4-yl)-1H-imidazol-2-yl)-2,3,8,8a-tetrahydroindolizin-5(1H)-one] |
| 0.6 | 0.0015 | – | – | NC(=O)c1ccc(-c2nc([C@@H]3CC[C@H]4CC(c5c(-n6cc(C(F)(F)F)nn6)ccc(Cl)c5F)=CC(=O)N43)[nH]c2Cl)s1 [Example 202, 5-(5-Chloro-2-((3S,8aS)-7-(3-chloro-2-fluoro-6-(4-(trifluoromethyl)-1H-1,2,3-triazol-1-yl)phenyl)-5-oxo-1,2,3,5,8,8a-hexahydroindolizin-3-yl)-1H-imidazol-4-yl)thiophene-2-carboxamide] |
